Assay results reported in US10882860B2, “Treatment of osteoarthritis” (Samumed, LLC, priority 2015, dated 2021).
Where two headings read alike, the source gives them in different places.

Legend:
[1] = Dog pharmacokinetics after IA injection (plasma, cartilage, bone, synovial fluid); assay type: in vivo, beagle dogs; conditions: for % Recovered / Compound of Formula (I) Concentration, Bone / Compound of Formula (I) Concentration, Cartilage / Total Amount Recovered / concentration at 45 day / concentration at 91 day / concentration at 179 day: dogs, IA suspension
Method: In rats and dogs, the pharmacokinetic profile, safety profile, tissue distribution and cartilage regeneration following a single intra-articular (IA) injection of the compound of Formula (I) in the plasma and the knee joint (cartilage and bone) was determined. The compound of Formula (I) (Form 1) was formulated as a suspension composition in 0.5% CMC/0.05% Polysorbate 80 in PBS.
A 350 μL suspension of the compound of Formula (I) (Form 1), formulated as described above, and corresponding to 3 and 30 μg/knee, was injected intra-articularly (IA) into the right and left knees of twelve (12) naïve male beagle dogs. On Day 1, blood was collected at 15 minutes immediately after IA injection and on Days 45, 91 and 179, dogs were sacrificed and blood samples and the knee joints were collected. Plasma and tissue concentrations (bone, cartilage and synovial fluid) were determined using the HPLC-MS/MS bioanalytical method with a dynamic range of […] in plasma or 5.00 to […] in tissue.

[2] = test system: protease expression (MMP1, MMP3, MMP13); experiment: Inhibition of protease release (qRT-PCR, TNF-α + Oncostatin M stimulated chondrocytes); assay type: cell-based, human; conditions: 72 hours, FIGS. 19A-C
Method: Human MSCs were plated in 10 cm dishes in chondrogenic induction medium (Lonza; DMEM, dexamethasone, ascorbate, insulin-transferrin-selenium [ITS supplement], gentamycin-amphotericin [GA-1000], sodium pyruvate, proline and L-glutamine) and treated with TGF-β3 (20 μg/mL) to induce chondrogenic differentiation. Cells from 4 dishes were pooled and re-plated in 24-well plates in Chondrogenic Induction Medium and treated with various concentrations of the compound of Formula (I). 4 hours later, MMP production was stimulated by adding TNF-α (20 μg/mL)+Oncostatin M (10 ng/mL) and cells were incubated at 37° C., 5% CO2 for 72 hours. Cells were then pelleted and washed, and total RNA was isolated and purified using RNeasy Plus Mini Kit (Qiagen). cDNA was synthesized from 1 μg of total RNA using QuantiTect Reverse Transcription kit (Qiagen). qRT-PCR was performed with QuantiTect SYBR Green PCR Kit (Qiagen) and gene-specific primers, using CFX384 thermal cycler (Biorad). Transcripts were quantitated by comparative Ct method, and normalized to endogenous controls, β-actin and GAPDH. Fold changes were normalized to unstimulated cells. […] FIG. 19A depicts MMP1 production. FIG. 19B depicts MMP3 production. FIG. 19C depicts MMP13 production.

[3] = test system: rats that underwent ACLT combined with medial meniscectomy (MMx); experiment: Efficacy of suspension in rat ACLT + pMMx model (OARSI score); assay type: in vivo; conditions: for OARSI score: vehicle 4.43
Method: The efficacy of the compound of Formula (I) on increasing cartilage thickness was determined in rats that underwent anterior cruciate ligament transection (ACLT) combined with medial meniscectomy (MMx).
Female rats (10-12 weeks old) were subjected to surgical severing of the anterior cruciate, medial collateral and medial meniscotibial ligaments (ACLT+pMMx). One-week post-surgery, after cartilage was allowed to degenerate, the rats were injected intra-articular (IA) with a single dose of a suspension of the compound of Formula (I) (0.1 μg or 0.3 μg or 1 μg). On Days 30, 60, and 90 after injection, joint cartilage, bone and plasma was isolated. Compound from these tissues was extracted using acetonitrile-methanol (70:30) and analyzed for concentrations using LC-MS.
13 weeks after the surgery (12 weeks post-IA injection), knees were isolated, fixed in 10% formalin, decalcified, embedded in paraffin, and sectioned. Sections were stained with Safranin O-Fast Green and histologically evaluated by two blinded observers based on OARSI scoring system (Pritzker et al. (2006) Osteoarthr. Cartil. 14:13-29). The OARSI score measures cartilage matrix loss, fissures, subchondral bone remodeling and bone cyst formation.

[4] = test system: Human MSCs; experiment: Alcian Blue, Safranin O, and Type II collagen staining; assay type: cell-based; conditions: 14 or 21 days; compared to control
Method: Human MSCs were plated in 96-well plates in chondrogenic induction medium (Lonza; DMEM, dexamethasone, ascorbate, insulin-transferrin-selenium [ITS supplement], gentamycin-amphotericin [GA-1000], sodium pyruvate, proline and L-glutamine) and treated with the compound of Formula (I) in DMSO or TGFβ3 (20 μg/mL) as a positive control. Cells were incubated at 37° C., 5% CO2 for either 14 or 21 days, with media changes every 5 days. The cells were fixed using 4% formaldehyde (Electron Microscopy Sciences). For Alcian Blue staining, cells were incubated with 10 mg/mL Alcian Blue (Sigma-Aldrich) in 3% acetic acid (Sigma-Aldrich), pH 2.5 for 30 minutes, washed with PBS, and imaged using a light microscope (Life Technologies) at 10× magnification. For Safranin O staining, cells were incubated with 0.1% Safranin O (Sigma-Aldrich) in distilled water for 5 minutes, washed with PBS and imaged using a light microscope (Life Technologies) at 10× magnification. For Type II collagen staining, cells were incubated with primary antibody in 3% BSA, 0.3% Triton X-100 in PBS with overnight incubation at […]. Cells were then washed and incubated with fluorophore-linked secondary antibody and DAPI (Life Technologies) for 1 hr at room temperature. Cells were washed and imaged using EVOS FL Microscope (Life Technologies).

[5] = dog, up to 30 μg/knee, 179 days

SMILES: CC(C)CC(=O)Nc1cncc(-c2ccc3[nH]nc(-c4nc5c(-c6cccc(F)c6)cncc5[nH]4)c3c2)c1 [compound of Formula (I)]
- % of administered dose recovered ([1]; dog, 3 μg/knee, Day 45): 5.1%
- total amount recovered from cartilage and bone tissues from the tibia ([1]; dog, 3 μg/knee, Day 45): 152 ng
- % of administered dose recovered ([1]; dog, 3 μg/knee, Day 91): 0.55%
- total amount recovered from cartilage and bone tissues from the tibia ([1]; dog, 3 μg/knee, Day 91): 16.6 ng
- % of administered dose recovered ([1]; dog, 3 μg/knee, Day 179): 2.5%
- total amount recovered from cartilage and bone tissues from the tibia ([1]; dog, 3 μg/knee, Day 179): 79 ng
- % of administered dose recovered ([1]; dog, 30 μg/knee, Day 45): 16.8%
- total amount recovered from cartilage and bone tissues from the tibia ([1]; dog, 30 μg/knee, Day 45): 5060 ng
- % of administered dose recovered ([1]; dog, 30 μg/knee, Day 91): 7.25%
- total amount recovered from cartilage and bone tissues from the tibia ([1]; dog, 30 μg/knee, Day 91): 2250 ng
- % of administered dose recovered ([1]; dog, 30 μg/knee, Day 179): 7.03%
- total amount recovered from cartilage and bone tissues from the tibia ([1]; dog, 30 μg/knee, Day 179): 2110 ng
- systemic exposure ([1]; dog, up to 30 μg/knee, 15 minutes post-dose): no measurable systemic exposure
- adverse effects from intra-articular administration [1, 5]: no adverse effects
- mortality [1, 5]: no mortality
- % Recovered ([1]; 3 μg/knee, Day 45): 5.1%
- Compound of Formula (I) Concentration, Bone ([1]; 3 μg/knee, Day 45): [22] nM
- Compound of Formula (I) Concentration, Cartilage ([1]; 3 μg/knee, Day 45): [301] nM
- Total Amount Recovered ([1]; 3 μg/knee, Day 45): 152 ng
- % Recovered ([1]; 3 μg/knee, Day 91): 0.55%
- Compound of Formula (I) Concentration, Bone ([1]; 3 μg/knee, Day 91): BQL
- Compound of Formula (I) Concentration, Cartilage ([1]; 3 μg/knee, Day 91): [73] nM
- Total Amount Recovered ([1]; 3 μg/knee, Day 91): 16.6 ng
- % Recovered ([1]; 3 μg/knee, Day 179): 2.6%
- Compound of Formula (I) Concentration, Bone ([1]; 3 μg/knee, Day 179): 12.8 ng/g and [25] nM
- Compound of Formula (I) Concentration, Cartilage ([1]; 3 μg/knee, Day 179): 63.7 ng/g and [126] nM
- Total Amount Recovered ([1]; 3 μg/knee, Day 179): 79.0 ng
- % Recovered ([1]; 30 μg/knee, Day 45): 16.9%
- Compound of Formula (I) Concentration, Bone ([1]; 30 μg/knee, Day 45): [1160] nM
- Compound of Formula (I) Concentration, Cartilage ([1]; 30 μg/knee, Day 45): [8960] nM
- Total Amount Recovered ([1]; 30 μg/knee, Day 45): 5057 ng
- % Recovered ([1]; 30 μg/knee, Day 91): 7.4%
- Compound of Formula (I) Concentration, Bone ([1]; 30 μg/knee, Day 91): [234] nM
- Compound of Formula (I) Concentration, Cartilage ([1]; 30 μg/knee, Day 91): [4609] nM
- Total Amount Recovered ([1]; 30 μg/knee, Day 91): 2175 ng
- % Recovered ([1]; 30 μg/knee, Day 179): 7.0%
- Compound of Formula (I) Concentration, Bone ([1]; 30 μg/knee, Day 179): [2289] nM
- Compound of Formula (I) Concentration, Cartilage ([1]; 30 μg/knee, Day 179): [228] nM
- Total Amount Recovered ([1]; 30 μg/knee, Day 179): 2109 ng
- concentration at 45 day ([1]; male, beagle, dog, bone, other: intra-articular, 3 μg/knee, Day 45, read-out: Compound of Formula (I) Concentration, Bone): 11.2 ng/g
- concentration at 45 day ([1]; male, beagle, dog, bone, other: intra-articular, 30 μg/knee, Day 45, read-out: Compound of Formula (I) Concentration, Bone): 586 ng/g
- concentration at 91 day ([1]; male, beagle, dog, bone, other: intra-articular, 30 μg/knee, Day 91, read-out: Compound of Formula (I) Concentration, Bone): 118 ng/g
- concentration at 179 day ([1]; male, beagle, dog, bone, other: intra-articular, 30 μg/knee, Day 179, read-out: Compound of Formula (I) Concentration, Bone): 1160 ng/g
- concentration at 45 day ([1]; male, beagle, dog, cartilage, other: intra-articular, 3 μg/knee, Day 45, read-out: Compound of Formula (I) Concentration, Cartilage): 152 ng/g
- concentration at 91 day ([1]; male, beagle, dog, cartilage, other: intra-articular, 3 μg/knee, Day 91, read-out: Compound of Formula (I) Concentration, Cartilage): 37 ng/g
- concentration at 45 day ([1]; male, beagle, dog, cartilage, other: intra-articular, 30 μg/knee, Day 45, read-out: Compound of Formula (I) Concentration, Cartilage): 4520 ng/g
- concentration at 91 day ([1]; male, beagle, dog, cartilage, other: intra-articular, 30 μg/knee, Day 91, read-out: Compound of Formula (I) Concentration, Cartilage): 2330 ng/g
- concentration at 179 day ([1]; male, beagle, dog, cartilage, other: intra-articular, 30 μg/knee, Day 179, read-out: Compound of Formula (I) Concentration, Cartilage): 115 ng/g
- concentration at 15 min ([1]; male, beagle, plasma, other: intra-articular, dog, 15 min post-dose, 3 or 30 μg/knee, BQL): < 2000 ng/mL
- protease expression (MMP1, MMP3, MMP13) [2]: dose-dependent inhibition
- OARSI score ([3]; rat ACLT+pMMx, single IA 0.1 μg suspension, 12 weeks post-injection): 3.13
- OARSI score ([3]; rat ACLT+pMMx, single IA 0.3 μg suspension, 12 weeks post-injection): 2.15
- total OARSI score (against vehicle) ([3]; rat ACLT+pMMx, 0.1, 0.3 or 1 μg, 12 weeks post-injection): dose-dependent reduction
- knee histology (Safranin O-Fast Green) ([3]; rat ACLT+pMMx, single IA injection, 12 weeks post-injection): Increased cartilage thickness, decreased fissures, and subchondral bone remodeling
- cartilage in safranin O-stained knee section vs control knee ([3]; rat, 0.3 μg, after 12 weeks, FIG. 23B): increased cartilage
- chondrogenesis (Alcian Blue, Safranin O, Type II collagen staining) [4]: increased amount of chondrogenesis
